Laboratory results published in publication PMC13489962, “Small-molecule modulation of β-arrestins” (Nature, 2026).

Columns and labels:
βARR1 P133A = target: T1, βARR1 P133A (Rattus norvegicus, UniProt P29066, P133A); assay: ITC binding to βARR1 mutant P133A; conditions: 25 °C
T1 construct: βARR1 or βARR2 construct, with their C terminus truncated (at amino acid 393 or 394, respectively); GST (pGEX4T1) (N, cleaved yes); made in house; host or cells: E. coli BL21 (DE3) pLysS
Protocol: (§1) The expression and purification of β-arrestins have been described previously[44],[62]–[64]. In brief, E. coli BL21 (DE3) pLysS cells (New England Biolabs: C2527I) carrying pGEX4T1-Rattus norvegicus βARR1 or βARR2 construct, with their C terminus truncated (at amino acid 393 or 394, respectively), were cultured in Terrific Broth (Teknova) medium at 37 °C. After OD600 reached 0.6–0.8, the cells were induced with 0.1 mM isopropyl-β-D-thiogalactopyranoside (IPTG) at 18 °C overnight. Bacteria were collected by centrifugation (4,000 rpm), and cell pellets were resuspended in lysis buffer (20 mM HEPES, pH 8, 150 mM NaCl, 10% glycerol, 1 mM EDTA, 0.2 mM dithiothreitol (DTT), 1 mM phenylmethylsulfonyl fluoride, and 1 mM benzamidine) at 4 °C for 1 h. […] Eluted fractions were analysed by SDS–PAGE, pooled, concentrated using 30 kDa MWCO Amicon Ultra-15 Centrifugal Filter devices, flash-frozen in liquid nitrogen, and stored in aliquots at −80 °C. […] Protein concentrations for each protein were determined by ultraviolet absorption at 280 nm and extinction coefficients estimated using the ExPASy ProtParam tool[67].
(§2) ITC measurements were performed on a MicroCal iTC200 system at 25 °C. […] Protein concentrations were determined by spectrophotometry at 280 nm, using extinction coefficients calculated from each protein sequence via the ProtParam program. […]

βARR1 K138A = target: T2, βARR1 K138A (Rattus norvegicus, UniProt P29066, K138A); assay: ITC binding to βARR1 mutant K138A; conditions: 25 °C
T2 construct: βARR1 or βARR2 construct, with their C terminus truncated (at amino acid 393 or 394, respectively); GST (pGEX4T1) (N, cleaved yes); made in house; host or cells: E. coli BL21 (DE3) pLysS
T2 sequence (P29066 1-393 K138A): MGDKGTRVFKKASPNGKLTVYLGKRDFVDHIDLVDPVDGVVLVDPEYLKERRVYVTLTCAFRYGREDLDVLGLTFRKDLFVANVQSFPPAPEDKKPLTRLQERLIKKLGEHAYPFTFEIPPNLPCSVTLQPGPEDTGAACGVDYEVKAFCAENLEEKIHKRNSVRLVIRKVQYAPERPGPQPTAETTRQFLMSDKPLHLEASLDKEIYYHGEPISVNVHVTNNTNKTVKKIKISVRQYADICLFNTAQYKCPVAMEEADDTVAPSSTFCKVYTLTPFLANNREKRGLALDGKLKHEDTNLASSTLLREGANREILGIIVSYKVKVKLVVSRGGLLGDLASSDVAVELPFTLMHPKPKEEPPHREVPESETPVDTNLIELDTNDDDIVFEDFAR
Protocol: as §1, §2

T1 sequence (P29066 1-393 P133A): as the sequence (P29066 1-393 K138A) above, with P133A, A138K counted along it

Question: For `C=C1C(=O)[C@]23[C@H](O)[C@H]1CC[C@H]2[C@@]12CO[C@]3(O)[C@@H](O)[C@@H]1C(C)(C)CC[C@@H]2O` [Cmpd-5, (1S,4aR,5S,6S,6aR,9S,11aS,11bS,14R)-1,5,6,14-tetrahydroxy−4,4-dimethyl-8-methylenedecahydro-1H-6,11b-(epoxymethano)-6a,9-methanocyclohepta[a]naphthalen-7(8H)-one], which Kd (βARR1 P133A) is on record?
Answer: Its Kd is 1000 ± 400 nM.

Question: What about the Kd (βARR1 K138A) of the same compound?
Answer: Its Kd is 1000 ± 300 nM.
